Measured values reported in article PMC4992410 (ACS chemical biology, 2016).

Test system: full-length IRE1α in INS-1 rat insulinoma cells
Experiment: XBP1 mRNA splicing in INS-1 cells
Type: cell-based
Details: absence of ER stress; for spliced cellular XBP1 mRNA levels: 3 and 10 μM, 2 hours

Row | Compound | spliced cellular XBP1 mRNA levels | spliced XBP1 mRNA level compared with 0.5 μg/mL tunicamycin
1 | COc1cc(N2CCC(N3CCN(C)CC3)CC2)ccc1Nc1ncc(Cl)c(Nc2ccccc2P(C)(C)=O)n1 [AP26113] | increase in spliced cellular XBP1 mRNA levels | equal or greater level
2 | O=C(Nc1c[nH]nc1-c1nc2ccc(CN3CCOCC3)cc2[nH]1)NC1CC1 [AT9283] | increase in spliced cellular XBP1 mRNA levels | equal or greater level
3 | NC(=O)Nc1cc(-c2cccc(F)c2)sc1C(=O)N[C@H]1CCCNC1 [AZD7762] | increase in spliced cellular XBP1 mRNA levels | 
4 | COc1cc(N2CCC(N3CCN(C)CC3)CC2)ccc1Nc1ncc(Cl)c(Nc2ccccc2S(=O)(=O)C(C)C)n1 [TAE684] | increase in spliced cellular XBP1 mRNA levels | 
